Molecular target: T1, Neutrophil elastase (Homo sapiens, UniProt P08246)
T1 sequence (P08246 whole entry): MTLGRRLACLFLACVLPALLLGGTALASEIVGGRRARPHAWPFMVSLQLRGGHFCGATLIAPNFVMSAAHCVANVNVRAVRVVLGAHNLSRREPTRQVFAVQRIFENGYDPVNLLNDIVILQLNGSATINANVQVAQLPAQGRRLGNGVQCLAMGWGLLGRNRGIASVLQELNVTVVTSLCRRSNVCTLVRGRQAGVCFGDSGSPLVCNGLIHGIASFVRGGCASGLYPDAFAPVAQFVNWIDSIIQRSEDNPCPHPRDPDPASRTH
Test: Tested for the rate constant against Human Leukocyte Elastase (HLE) inactivation
Settings: read-out: kon (M-1-s-1)

SMILES: CO[C@H]1C(=O)N2C(C(=O)N3CCCC3C(=O)O)=C(COC(C)=O)CS(=O)(=O)[C@H]12 (stereo partly drawn) [1-(3-Acetoxymethyl-7-methoxy-5,5,8-trioxo-5lambda*6*-thia-1-aza-bicyclo[4.2.0]oct-2-ene-2-carbonyl)-pyrrolidine-2-carboxylic acid(L-658,758)]
- kon: 1800 M⁻¹ s⁻¹

Reference: BindingDB's records for doi:10.1021/jm00049a020 (Pharmacia-Farmitalia Carlo Erba, 1994)
